This note sets out measurements from patent publication US11846630B2, “Coordinately-ordered single cells with individual identities for high-throughput assay” (Northeastern University, priority 2019, dated 2023).

One assay concerns OT-1 cells. Briefly: Microwell ELISA immunoassay of interferon-γ secreted by peptide-stimulated OT-1 cells. Type of assay: cell-based. The settings on record: OVA peptide concentration 0.5, 1, 2, 4, 8 μg/mL; FIG. 12, panel C. An excerpt:
Surface of the microwells can be chemically modified with capture agents, such as antibodies, to detect cytokines secreted by T cells during the T cell-cancer cells interaction. […] The cytokine detection is based on ELISA sandwich structure and quantified based on the fluorescence intensity of Avidin Texas red. Due to the existence of BSA on the top layer, the majority of antibodies were only absorbed on the inner surface of the microwells (bottom and inside wall of microwell), which enhanced capturing signals and reduced background. The location of the capture antibody after BSA saturation was indicated using Rhodamine-BSA and FITC-Antibody and shown in FIG. 11, panel B, in which BSA only covered the top layer of microwell and the green fluorescent capture antibody was mainly present inside the microwells after BSA saturation, enhancing the signals from the microwells. The fluorescence images of interferon-γ at two concentrations are shown in FIG. 11, panel C, and the standard curve of fluorescence versus interferon-γ concentration is presented in FIG. 11, panel D. According to the standard curve, imaged-based ELISA using the microwells detected a wide range of the cytokine concentrations from 0.1 ng/mL to 5 ng/mL, and the concentrations determined based on fluorescence intensity ranged from 0.8×10^5 to 2.7×10^5. […]
Background: In an ELISA, binding on a coated surface is turned into a signal by an enzyme label.

The next assay relates to HeLa cells. In words: ROS assay (CellROX Orange) on coordinated single cell pattern. The settings on record: 1 μM doxorubicin for 6 hours.

On to “SINFEKL [OVA peptide, OVA peptide (SINFEKL) used to stimulate OT-1 cells to secrete cytokines]”, for which the “intensity of the interferon-γ fluorescence” value with OT-1 cells is “increased”.

With `COc1cccc2c1C(=O)c1c(O)c3c(c(O)c1C2=O)C[C@@](O)(C(=O)CO)C[C@@H]3O[C@H]1C[C@H](N)[C@H](O)[C@H](C)O1` [doxorubicin], in the assay with HeLa cells (then X-ray 10.8 Gy, compared with doxorubicin alone), the “ROS orange signal intensity after subsequent X-ray exposure” value is given as “much higher level of damage than that of doxorubicin alone”. Besides, the ROS orange signal result in the assay with HeLa cells (identical cell analysis, FIG. 3) was “increases”.
